Test results published in ChEMBL document CHEMBL5550211 (J Med Chem, 2024).
Converted amounts (≈) assume the structure as drawn. The source made the active and inactive calls. The calls are words filed in the database; no cut-off is given here.

Columns and labels:
[1] = Tmax in mouse at 30 mg/kg, po; assay type: ADME, organism-based; conditions: in vivo
A-375 [2] = experiment: Antitumor activity against human A-375 cells harboring BRAF V600E mutant xenografted in Nu/nu NCR mouse assessed as tumor regression at 10 mg/kg, po BID measured after 2 weeks; assay type: functional, organism-based
A-375 [3] = experiment: Antitumor activity against human A-375 cells harboring BRAF V600E mutant xenografted in Nu/nu NCR mouse assessed as tumor flux inhibition at 10 to 30 mg/kg, po BID for 60 days; assay type: functional; set-up: scale not given: the % may be the effect or the level left; conditions: dose 10-30 mg/kg, time 60 day
[4] = Drug concentration in mouse plasma at 30 mg/kg, po after 4 hrs; assay type: ADME, organism-based
[5] = Plasma protein binding in cynomolgus monkey assessed as unbound fraction; assay type: ADME, cell-free, Macaca fascicularis
[6] = Volume of distribution at steady state in mouse at 3 mg/kg, iv; assay type: ADME, organism-based; conditions: in vivo, read-out: Vdss
[7] = Half-life in mouse at 3 mg/kg, iv; assay type: ADME, organism-based; conditions: in vivo
[8] = Toxicity in Nu/nu NCR mouse intracerebrally xenografted with human A-375 cells harboring BRAF V600E mutant assessed as body weight loss at 5 to 10 mg/kg, po measured after 60 days; assay type: organism-based; conditions: in vivo, 1440 h, dose 5-10 mg/kg, time 60 day
[9] = Oral bioavailability in mouse at 30 mg/kg; assay type: ADME, organism-based; conditions: in vivo
[10] = Drug concentration in mouse brain at 5 mg/kg, po after 4 hrs; assay type: ADME, organism-based; conditions: read-out: Ct
A-375 [11] = experiment: Antitumor activity against human A-375 cells harboring BRAF V600E mutant xenografted in Nu/nu NCR mouse assessed as IC90 coverage time at 30 mg/kg, po BID for 60 days; assay type: functional; conditions: time 60 day
[12] = Drug concentration in mouse plasma at 5 mg/kg, po after 2 hrs; assay type: ADME, organism-based
A-375 [13] = experiment: Antitumor activity against human A-375 cells harboring BRAF V600E mutant xenografted in Nu/nu NCR mouse assessed as IC90 coverage time at 10 mg/kg, po BID for 21 days; assay type: functional; conditions: time 21 day
[14] = Chemical stability in MeOH/NaHCO3/cysteine assessed as drug metabolism assessed as SN2 substitution after 50 degreeC overnight incubation; assay type: physicochemical; conditions: read-out: Drug metabolism
[15] = Unbound drug concentration in mouse brain at 5 mg/kg, po after 4 hrs; assay type: ADME, organism-based; conditions: in vivo
[16] = Plasma protein binding in human assessed as unbound fraction; assay type: ADME, cell-free
[17] = Drug concentration in mouse brain at 30 mg/kg, po after 4 hrs; assay type: ADME, organism-based; conditions: read-out: Ct
[18] = Unbound drug concentration in mouse brain at 30 mg/kg, po after 2 hrs; assay type: ADME, organism-based; conditions: in vivo
[19] = Drug concentration in mouse plasma at 30 mg/kg, po after 2 hrs; assay type: ADME, organism-based
[20] = Protein binding in mouse brain assessed as unbound fraction; assay type: ADME, tissue-based
[21] = Drug concentration in mouse brain at 10 mg/kg, po after 4 hrs; assay type: ADME, organism-based; conditions: read-out: Ct
[22] = Oral bioavailability in mouse at 10 mg/kg; assay type: ADME, organism-based; conditions: in vivo
[23] = Tmax in mouse at 5 mg/kg, po; assay type: ADME, organism-based; conditions: in vivo
[24] = Drug concentration in mouse brain at 5 mg/kg, po after 2 hrs; assay type: ADME, organism-based; conditions: read-out: Ct
[25] = AUCinfinity in mouse at 10 mg/kg, po; assay type: ADME, organism-based; conditions: in vivo
[26] = Unbound drug concentration in mouse brain at 30 mg/kg, po after 4 hrs; assay type: ADME, organism-based; conditions: in vivo
A-375 [27] = experiment: Antitumor activity against human A-375 cells harboring BRAF V600E mutant xenografted in Nu/nu NCR mouse assessed as IC90 coverage time at 10 mg/kg, po BID for 60 days; assay type: functional; conditions: time 60 day
[28] = Clearance in mouse at 3 mg/kg, iv; assay type: ADME, organism-based; conditions: in vivo
A-375 [29] = experiment: Antitumor activity against human A-375 cells harboring BRAF V600E mutant xenografted in Nu/nu NCR mouse assessed as IC90 coverage time at 5 mg/kg, po BID for 21 days; assay type: functional; conditions: time 21 day
[30] = Unbound drug concentration in mouse brain at 5 mg/kg, po after 2 hrs; assay type: ADME, organism-based; conditions: in vivo
[31] = Apparent permeability across apical to basolateral side in LLC-PK1 cells; assay type: ADME, cell-based, Sus scrofa; conditions: pig
A-375 [32] = experiment: Antitumor activity against human A-375 cells harboring BRAF V600E mutant xenografted in Nu/nu NCR mouse assessed as tumor regression at 5 mg/kg, po BID for 21 days; assay type: functional, organism-based; conditions: time 21.0 day
[33] = Chemical stability in MeOH/NaHCO3/glutathione assessed as drug metabolism assessed as SN2 substitution after 50 degreeC overnight incubation; assay type: physicochemical; conditions: read-out: Drug metabolism
[34] = Unbound drug concentration in mouse plasma at 10 mg/kg, po after 4 hrs; assay type: ADME, organism-based; conditions: in vivo
[35] = Plasma protein binding in mouse assessed as unbound fraction; assay type: ADME, cell-free
[36] = Drug concentration in mouse brain at 10 mg/kg, po after 2 hrs; assay type: ADME, organism-based; conditions: read-out: Ct
[37] = Drug concentration in mouse brain at 30 mg/kg, po after 2 hrs; assay type: ADME, organism-based; conditions: read-out: Ct
A-375 [38] = experiment: Antitumor activity against human A-375 cells harboring BRAF V600E mutant xenografted in Nu/nu NCR mouse assessed as IC90 coverage at 5 mg/kg, po BID for 60 days; assay type: functional, organism-based; conditions: time 60.0 day
[39] = Plasma protein binding in dog assessed as unbound fraction; assay type: ADME, cell-free, Canis lupus familiaris
[40] = Plasma protein binding in rat assessed as unbound fraction; assay type: ADME, cell-free
[41] = Solubility in stimulated intestinal fluid at pH 6.5; assay type: ADME; conditions: simulated intestinal fluid
[42] = AUCinfinity in mouse at 5 mg/kg, po; assay type: ADME, organism-based; conditions: in vivo
[43] = Unbound drug concentration in mouse plasma at 5 mg/kg, po after 2 hrs; assay type: ADME, organism-based; conditions: in vivo
[44] = Unbound drug concentration in mouse brain at 10 mg/kg, po after 2 hrs; assay type: ADME, organism-based; conditions: in vivo
[45] = Cmax in mouse at 5 mg/kg, po; assay type: ADME, organism-based; conditions: in vivo
[46] = Toxicity in Nu/nu NCR mouse intracerebrally xenografted with human A-375 cells harboring BRAF V600E mutant assessed as animal death at 5 to 10 mg/kg, po measured after 60 days; assay type: organism-based; conditions: in vivo, 1440 h, dose 5-10 mg/kg, time 60 day
[47] = Oral bioavailability in mouse at 5 mg/kg; assay type: ADME, organism-based; conditions: in vivo
[48] = AUCinfinity in mouse at 30 mg/kg, po; assay type: ADME, organism-based; conditions: in vivo
[49] = Toxicity in Nu/nu NCR mouse subcutaneously xenografted with human A-375 cells harboring BRAF V600E mutant assessed as body weight loss at 5 to 10 mg/kg, po measured after 21 days; assay type: organism-based; conditions: in vivo, 504 h, dose 5-10 mg/kg, time 21 day
[50] = Unbound drug concentration in mouse plasma at 30 mg/kg, po after 2 hrs; assay type: ADME, organism-based; conditions: in vivo
[51] = Unbound drug concentration in mouse brain at 10 mg/kg, po after 4 hrs; assay type: ADME, organism-based; conditions: in vivo
[52] = Unbound drug concentration in mouse plasma at 5 mg/kg, po after 4 hrs; assay type: ADME, organism-based; conditions: in vivo
[53] = Drug concentration in mouse plasma at 5 mg/kg, po after 4 hrs; assay type: ADME, organism-based
[54] = Unbound drug concentration in mouse plasma at 10 mg/kg, po after 2 hrs; assay type: ADME, organism-based; conditions: in vivo
[55] = Protein binding in dog brain assessed as unbound fraction; assay type: ADME, tissue-based, Canis lupus familiaris
[56] = Cmax in mouse at 10 mg/kg, po; assay type: ADME, organism-based; conditions: in vivo
[57] = Cmax in mouse at 30 mg/kg, po; assay type: ADME, organism-based; conditions: in vivo
[58] = Protein binding in rat brain assessed as unbound fraction; assay type: ADME, tissue-based
[59] = Protein binding in cynomolgus monkey brain assessed as unbound fraction; assay type: ADME, tissue-based, Macaca fascicularis
[60] = Unbound drug concentration in mouse plasma at 30 mg/kg, po after 4 hrs; assay type: ADME, organism-based; conditions: in vivo
[61] = Drug concentration in mouse plasma at 10 mg/kg, po after 4 hrs; assay type: ADME, organism-based
A-375 [62] = experiment: Antitumor activity against human A-375 cells harboring BRAF V600E mutant xenografted in Nu/nu NCR mouse assessed as tumor regression at 10 to 30 mg/kg, po BID for 60 days; assay type: functional; conditions: dose 10-30 mg/kg, time 60 day
[63] = target: Voltage-gated inwardly rectifying potassium channel KCNH2 (Homo sapiens, UniProt Q12809); experiment: Inhibition of hERG; assay type: toxicity
[64] = Solubility in buffer at pH 7.4; assay type: physicochemical
[65] = Dissociation constant, pKa of the compound; assay type: physicochemical
[66] = Tmax in mouse at 10 mg/kg, po; assay type: ADME, organism-based; conditions: in vivo
[67] = Solubility in stimulated gastric fluid at pH 1.2; assay type: ADME; conditions: simulated gastric fluid
[68] = Drug concentration in mouse plasma at 10 mg/kg, po after 2 hrs; assay type: ADME, organism-based

Chain of Voltage-gated inwardly rectifying potassium channel KCNH2 (Q12809 whole entry): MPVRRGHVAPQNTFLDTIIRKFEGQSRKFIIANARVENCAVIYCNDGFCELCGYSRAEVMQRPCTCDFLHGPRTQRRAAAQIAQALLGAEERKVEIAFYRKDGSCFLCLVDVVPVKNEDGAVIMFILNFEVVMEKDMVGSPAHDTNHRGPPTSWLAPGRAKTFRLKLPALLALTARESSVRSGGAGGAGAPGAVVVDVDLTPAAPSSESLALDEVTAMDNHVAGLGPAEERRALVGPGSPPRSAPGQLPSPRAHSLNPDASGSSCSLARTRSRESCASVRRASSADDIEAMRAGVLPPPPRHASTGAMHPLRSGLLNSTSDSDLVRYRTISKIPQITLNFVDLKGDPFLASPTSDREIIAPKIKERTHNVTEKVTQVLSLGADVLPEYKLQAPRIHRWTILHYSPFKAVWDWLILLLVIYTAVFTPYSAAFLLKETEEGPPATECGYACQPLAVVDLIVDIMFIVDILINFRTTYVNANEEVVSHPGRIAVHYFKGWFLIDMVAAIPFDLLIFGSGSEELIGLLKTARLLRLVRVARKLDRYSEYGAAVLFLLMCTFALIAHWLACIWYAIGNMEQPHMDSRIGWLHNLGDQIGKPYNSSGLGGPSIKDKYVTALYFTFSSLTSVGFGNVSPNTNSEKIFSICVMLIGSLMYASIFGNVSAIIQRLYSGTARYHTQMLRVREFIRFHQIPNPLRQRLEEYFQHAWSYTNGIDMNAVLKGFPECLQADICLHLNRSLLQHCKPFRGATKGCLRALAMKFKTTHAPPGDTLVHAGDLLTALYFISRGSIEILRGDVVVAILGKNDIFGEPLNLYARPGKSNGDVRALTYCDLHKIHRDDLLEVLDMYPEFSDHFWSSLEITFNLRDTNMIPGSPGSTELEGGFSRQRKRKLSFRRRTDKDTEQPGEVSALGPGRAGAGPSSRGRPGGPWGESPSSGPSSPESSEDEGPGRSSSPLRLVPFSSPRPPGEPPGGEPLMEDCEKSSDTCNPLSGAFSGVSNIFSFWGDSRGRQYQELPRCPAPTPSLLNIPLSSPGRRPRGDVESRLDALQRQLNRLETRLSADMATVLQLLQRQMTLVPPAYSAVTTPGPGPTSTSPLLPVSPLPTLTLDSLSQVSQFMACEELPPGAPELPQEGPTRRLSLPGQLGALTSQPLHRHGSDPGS

In the case of `Cc1c(Nc2c(F)ccc(NS(=O)(=O)CCCF)c2Cl)ccc2ncn(C)c(=O)c12` [TINLORAFENIB], the Tmax [1] is reported as 1 h, the Activity (A-375 [2]) is reported as “Active” and the Activity (A-375 [3]) is reported as over 99%. For the same molecule, the concentration at 4 h [4] was 12000 ng/mL, the fraction unbound [5] was 0.011 and the Vd [6] was 0.59 L/kg. The half-life [7] was 1.9 h, the Activity [8] was under 5% and the bioavailability [9] was 130%. It also gave a concentration at 4 h [10] of 530 ng/g, a Time (A-375 [11]) of over 24 h and a concentration at 2 h [12] of 4200 ng/mL. For the same molecule, the Time (A-375 [13]) was over 16 h, the degraded [14] was under 1% and the “Drug uptake(free)” value [15] was 0.046 µg/g. For the same molecule, the fraction unbound [16] was 0.009, the concentration at 4 h [17] was 2100 ng/g and the “Drug uptake(free)” value [18] was 0.21 µg/g. For the same molecule, the concentration at 2 h [19] was 16000 ng/mL, the fraction unbound [20] was 0.087 and the concentration at 4 h [21] was 1600 ng/g. It also gave an F [22] of 192%, a Tmax [23] of 1 h and a concentration at 2 h [24] of 590 ng/g. The AUC(0-inf) [25] was 86000 ng·h/mL, the “Drug uptake(free)” value [26] was 0.18 µg/g and the Time (A-375 [27]) was about 16 h. The clearance [28] was 3.7 mL/min/kg, the Time (A-375 [29]) was about 8 h and the “Drug uptake(free)” value [30] was 0.051 µg/g. For the same molecule, the Papp A→B [31] was 36 ×10⁻⁶ cm/s, the Activity (A-375 [32]) was “Active” and the degraded [33] was under 1%. For the same molecule, the “Cp(f)” value [34] was 190 ng/mL, the fraction unbound [35] was 0.019 and the concentration at 2 h [36] was 1600 ng/g. For the same molecule, the concentration at 2 h [37] was 2400 ng/g, the Activity (A-375 [38]) was “inactive” and the fraction unbound [39] was 0.017. For the same molecule, the fraction unbound [40] was 0.003, the solubility [41] was 7.6 µg/mL (≈ 16.6 µM) and the AUC(0-inf) [42] was 28000 ng·h/mL. For the same molecule, the “Cp(f)” value [43] was 79 ng/mL, the “Drug uptake(free)” value [44] was 0.14 µg/g and the Cmax [45] was 4700 ng/mL. The Activity [46] was “Non-Toxic”, the bioavailability [47] was 126% and the AUC(0-inf) [48] was 176000 ng·h/mL. For the same molecule, the Activity [49] was under 5%, the “Cp(f)” value [50] was 300 ng/mL and the “Drug uptake(free)” value [51] was 0.14 µg/g. For the same molecule, the “Cp(f)” value [52] was 59 ng/mL, the concentration at 4 h [53] was 3100 ng/mL and the “Cp(f)” value [54] was 220 ng/mL. The fraction unbound [55] was 0.073, the Cmax [56] was 14000 ng/mL and the Cmax [57] was 18000 ng/mL. For the same molecule, the fraction unbound [58] was 0.068, the fraction unbound [59] was 0.068 and the “Cp(f)” value [60] was 230 ng/mL. It also gave a concentration at 4 h [61] of 9900 ng/mL, an Activity (A-375 [62]) of over 90% and an IC50 [63] of 49.7 µM. It also gave a solubility [64] of 9.1 µg/mL (≈ 19.9 µM), a pKa [65] of 7.41 and a Tmax [66] of 1 h. The solubility [67] was 132 µg/mL (≈ 289 µM) and the concentration at 2 h [68] was 11000 ng/mL.
